Assay results published in PubChem BioAssay (NCI).
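Cells were grown in 96-well plates and exposed to each compound for 48 hours at five concentrations; endpoints were interpolated linearly between bracketing concentrations, or set to the highest concentration if not reached. TGI: total growth inhibition.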

Experiments:
Test in all cases: growth of human tumour cells (NCI), 48 h
786-0 renal = test system: 786-0 renal
A498 renal = test system: A498 renal
A549 NSCLC = test system: A549 NSCLC
BT-549 breast = test system: BT-549 breast
CAKI-1 renal = test system: CAKI-1 renal
DU-145 prostate = test system: DU-145 prostate
HCC-2998 colon = test system: HCC-2998 colon
HOP-92 NSCLC = test system: HOP-92 NSCLC
HS 578T breast = test system: HS 578T breast
LOX IMVI melanoma = test system: LOX IMVI melanoma
M14 melanoma = test system: M14 melanoma
MALME-3M melanoma = test system: MALME-3M melanoma
MDA-MB-231 breast = test system: MDA-MB-231 breast
NCI-H23 lung = test system: NCI-H23 lung
NCI-H460 lung = test system: NCI-H460 lung
NCI-H522 lung = test system: NCI-H522 lung
OVCAR-3 ovarian = test system: OVCAR-3 ovarian
OVCAR-4 ovarian = test system: OVCAR-4 ovarian
OVCAR-5 ovarian = test system: OVCAR-5 ovarian
OVCAR-8 ovarian = test system: OVCAR-8 ovarian
PC-3 prostate = test system: PC-3 prostate
RPMI-8226 leukemia = test system: RPMI-8226 leukemia
RXF 393 renal = test system: RXF 393 renal
SF-268 CNS = test system: SF-268 CNS
SF-539 CNS = test system: SF-539 CNS
SK-MEL-2 melanoma = test system: SK-MEL-2 melanoma
SK-MEL-28 melanoma = test system: SK-MEL-28 melanoma
SK-MEL-5 melanoma = test system: SK-MEL-5 melanoma
SK-OV-3 ovarian = test system: SK-OV-3 ovarian
SN12C renal = test system: SN12C renal
SNB-19 CNS = test system: SNB-19 CNS
SNB-75 CNS = test system: SNB-75 CNS
T-47D breast = test system: T-47D breast
TK-10 renal = test system: TK-10 renal
U251 CNS = test system: U251 CNS
UACC-257 melanoma = test system: UACC-257 melanoma
UACC-62 melanoma = test system: UACC-62 melanoma
UO-31 renal = test system: UO-31 renal

Measured: TGI

Cc1cc(C)c2c(c1)CC1(Cc3ccc(C)c(C)c3C1=O)C2=O (stereo not drawn)
> 100 µM: all assays above
